According to patent US9358266B2, “Treatment of sepsis using complement inhibitors” (The Trustees of the University of Pennsylvania, priority 2010, dated 2016):

Experiments:
complement [1] = assay: Complement activation products and complement activity in plasma, baboon LD50 E. coli sepsis; assay type: in vivo, Papio cyanocephalus
[2] = test system: baboons infused with live E. coli (LD50 dose); assay: Immunofluorescence of complement pathway proteins in kidney, baboon LD50 E. coli sepsis; assay type: in vivo, Papio cyanocephalus
[3] = test system: baboons infused with live E. coli (LD50 dose); assay: Hematological parameters and cell accumulation in organs, baboon LD50 E. coli sepsis; assay type: in vivo, Papio cyanocephalus
[4] = test system: baboons infused with live E. coli (LD50 dose); assay: Coagulation tests (fibrinogen, FDP, APTT), baboon LD50 E. coli sepsis; assay type: in vivo, Papio cyanocephalus
[5] = test system: baboons infused with live E. coli (LD50 dose); assay: Immunofluorescence and qRT-PCR of hemostatic proteins (PAI-1, TF, TFPI, TM) in lung and liver, baboon LD50 E. coli sepsis; assay type: in vivo, Papio cyanocephalus; details: for PAI1 mRNA in liver: vs non-challenged controls (1±0.6), E. coli alone 22-fold (±9)
[6] = test system: baboons infused with live E. coli (LD50 dose); assay: Plasma cytokines multiplex assay, baboon LD50 E. coli sepsis; assay type: in vivo, Papio cyanocephalus
[7] = test system: baboons infused with live E. coli (LD50 dose); assay: Blood pressure and organ function biochemical tests, baboon LD50 E. coli sepsis; assay type: in vivo, Papio cyanocephalus
[8] = test system: baboons infused with live E. coli (LD50 dose); assay: Histopathological analysis of organs, baboon LD50 E. coli sepsis; assay type: in vivo, Papio cyanocephalus
complement [9] = assay: Complement activation in LD100 model of E. coli sepsis in baboons; assay type: in vivo, Papio cyanocephalus; details: for % Complement Activation at T+120 min: untreated avg. 2.8
Method: (§1) Reagents, Compstatin analog and live E. coli organisms were obtained or prepared as described in Example 1. Papio cyanocephalus baboons were infused with 2-3×10^10 CFU/kg live E. coli (LD100 dose) as described (Taylor F B, Jr., et al., 2000, Blood 95: 1680-1686). The time point at which the infusion was started was indicated as T-0, a time point of n minutes or hours thereafter referred to as T+n minutes (or hours). The Compstatin analog was administered at three different concentrations as an intravenous bolus followed by continuous infusion.
(§2) Complement activity was measured in accordance with known methods. Survival time was also recorded.

[10] = test system: baboons infused with live E. coli (LD100 dose); assay: Survival time in LD100 model of E. coli sepsis in baboons; assay type: in vivo, Papio cyanocephalus; details: for Survival Time: no antibiotics
Method: as §1, §2

baboon complement = details: relative to human complement; Sahu et al. 2003; cited from earlier work
human complement = details: relative to baboon complement; Sahu et al. 2003; cited from earlier work
primate C3 = primate C3 (Homo sapiens, UniProt P01024); details: Janssen et al. 2007; cited from earlier work
Sequence of primate C3 (P01024 23-1663): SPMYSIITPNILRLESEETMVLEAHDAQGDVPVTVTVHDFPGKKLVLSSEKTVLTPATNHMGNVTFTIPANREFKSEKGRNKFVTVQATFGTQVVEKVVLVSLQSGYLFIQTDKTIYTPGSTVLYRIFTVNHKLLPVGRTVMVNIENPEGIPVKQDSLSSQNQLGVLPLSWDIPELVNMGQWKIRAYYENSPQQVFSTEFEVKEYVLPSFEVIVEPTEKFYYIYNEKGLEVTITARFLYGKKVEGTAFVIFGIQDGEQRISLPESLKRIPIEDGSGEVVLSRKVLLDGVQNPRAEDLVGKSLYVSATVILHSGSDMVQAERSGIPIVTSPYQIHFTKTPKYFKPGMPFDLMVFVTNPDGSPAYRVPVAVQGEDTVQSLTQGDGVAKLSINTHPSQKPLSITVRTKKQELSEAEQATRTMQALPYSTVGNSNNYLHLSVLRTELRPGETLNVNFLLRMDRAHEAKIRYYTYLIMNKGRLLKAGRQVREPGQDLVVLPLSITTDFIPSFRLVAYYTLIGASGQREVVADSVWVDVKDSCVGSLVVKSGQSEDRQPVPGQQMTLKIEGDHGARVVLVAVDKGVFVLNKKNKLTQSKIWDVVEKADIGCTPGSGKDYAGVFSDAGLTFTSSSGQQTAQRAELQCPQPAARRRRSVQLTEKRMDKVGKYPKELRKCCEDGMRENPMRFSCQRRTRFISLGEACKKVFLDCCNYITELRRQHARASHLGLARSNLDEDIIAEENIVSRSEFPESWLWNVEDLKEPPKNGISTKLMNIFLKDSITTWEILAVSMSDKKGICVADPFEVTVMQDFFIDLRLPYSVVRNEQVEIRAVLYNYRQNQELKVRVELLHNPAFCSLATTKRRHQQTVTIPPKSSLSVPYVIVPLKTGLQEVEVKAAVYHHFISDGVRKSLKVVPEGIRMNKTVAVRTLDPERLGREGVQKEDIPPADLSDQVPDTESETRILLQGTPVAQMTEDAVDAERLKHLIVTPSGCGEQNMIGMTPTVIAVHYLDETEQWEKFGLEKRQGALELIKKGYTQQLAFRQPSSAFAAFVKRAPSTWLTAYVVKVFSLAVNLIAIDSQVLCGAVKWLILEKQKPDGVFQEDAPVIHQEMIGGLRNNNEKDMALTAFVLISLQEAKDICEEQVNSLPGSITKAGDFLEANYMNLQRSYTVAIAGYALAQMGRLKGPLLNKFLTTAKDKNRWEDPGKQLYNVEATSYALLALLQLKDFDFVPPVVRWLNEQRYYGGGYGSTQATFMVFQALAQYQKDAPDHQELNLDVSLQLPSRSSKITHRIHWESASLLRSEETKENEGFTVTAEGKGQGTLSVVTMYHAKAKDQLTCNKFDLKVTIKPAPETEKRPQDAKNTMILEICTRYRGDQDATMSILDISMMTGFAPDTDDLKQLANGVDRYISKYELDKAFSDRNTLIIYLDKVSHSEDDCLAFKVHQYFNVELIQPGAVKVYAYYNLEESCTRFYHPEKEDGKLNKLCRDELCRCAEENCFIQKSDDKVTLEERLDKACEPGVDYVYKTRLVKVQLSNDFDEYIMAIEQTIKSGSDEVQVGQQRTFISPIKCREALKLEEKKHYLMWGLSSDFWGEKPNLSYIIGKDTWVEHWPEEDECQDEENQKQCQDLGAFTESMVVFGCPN

[11] = septic baboons, infusion with Compstatin analog
[12] = immunofluorescence MFI of kidney cryosections, T+24, T0 and T+5 treatment, FIG. 2
[13] = kidney immunofluorescence, FIG. 2
[14] = lung cryosections immunofluorescence, both early and late treatments, FIG. 5A
[15] = both preventive and rescue therapy, data not shown
[16] = histology at 24 hrs vs non-treated group

## Ac-I[CVW(Me)QDWGAHRCT]I-NH2 [Compstatin analog]
Complement [1]; 10 mg/kg iv bolus + 60 μg/kg/min, both preventive (T0 to T+8) and rescue (T+5 to T+11) treatments, FIG. 1A
  plasma complement activity: inhibited
Complement [1]; 10 mg/kg iv bolus + 60 μg/kg/min, both preventive (T0 to T+8) and rescue (T+5 to T+11) treatments, FIG. 1B
  plasma TCC levels: inhibited
Complement [1]; rescue regimen (T+5 to T+11) compared with prevention group, FIG. 1B
  late rise of plasma TCC levels: averting the late rise observed in the prevention group
Complement [1]; [11]
  C3a generation: rapidly inhibited
  C3b generation: rapidly inhibited
[2]; [12]
  C3b deposition in the kidney: significantly inhibited
  C5b9 deposition in the kidney: significantly inhibited
  MBL deposition in the kidney: significantly inhibited
[2]; [13]
  shedding of CD55 from the endothelial surface: protected against shedding
  shedding of CD59 from the endothelial surface: protected against shedding
[2]; qRT-PCR, data not shown
  mRNA expression of CD55 and CD59: without significantly affecting
[3]; FIG. 3C
  accumulation of macrophages in the lung: lower accumulation
[3]; FIG. 3D-E
  accumulation of platelets in the lung and on the surface of the large vessels: lower accumulation
[3]; both prevention and rescue regimens, FIG. 3A
  WBC count in blood: faster WBC recovery
[3]; both prevention and rescue regimens, FIG. 3B
  platelet count in blood (platelet consumption): lower plasma platelet consumption
[3]; immunostaining for cell specific markers, not shown
  number of neutrophils: without significant changes
[3]; immunostaining, lung, FIG. 3C
  CD68 positive macrophages: significant decrease
[3]; lung and large vessels, FIG. 3D-E
  C5b9 deposition on aggregated platelets: decreased C5b9 deposition
[4]; after 24 hours, compared with non-treated animals, FIG. 4A
  fibrinogen levels: fully recovered and overshot the initial values
[4]; first eight hours post-challenge, FIG. 4A
  fibrinogen consumption: reduced fibrinogen consumption
[4]; treated vs non-treated animals, FIG. 4B
  FDP levels: significantly lower
[4]; treated vs non-treated animals, FIG. 4C
  APTT: slightly decreased
[5]; [14]
  E. coli induced PAI-1 staining in lung: decreased
  E. coli induced TF staining in lung: decreased
  TFPI in endothelial cells of lung: protected against sepsis-induced downregulation
  TM in endothelial cells of lung: protected against sepsis-induced downregulation
[5]; treated animals
  TF expression in the lung: decrease
  monocyte/macrophages infiltration in the lung: decrease
[5]; treated at T0, mean (±SEM 8)
  PAI1 mRNA in liver: 8 fold
[5]; treated at T+5, mean (±SEM 0.8)
  PAI1 mRNA in liver: 4 fold
[5]; treated versus non-treated septic baboons
  PAI-1 expression in endothelial cells and macrophages: down-regulated
[6]; 23-plex assay, nine increased by sepsis, except eotaxin and IL-6, data not shown
  effect on plasma cytokines: marginal
[6]; [15]
  plasma IL-6: reduction
  plasma eotaxin: reduction
[7]; T+8 and T+24, two treatment groups vs non treated septic animals, FIG. 6B
  creatinine, magnitude of the response: lower
[7]; T+8 and T+24, two treatment groups vs non treated septic animals, FIG. 6C
  LDH, magnitude of the response: lower
[7]; T+8 and T+24, two treatment groups vs non treated septic animals, FIG. 6D
  ALT, magnitude of the response: lower
[7]; T+8 and T+24, two treatment groups vs non treated septic animals, FIG. 6E
  AST, magnitude of the response: lower
[7]; early treatment (T0 to T+8), FIG. 6A
  decrease of mean systemic arterial blood pressure: virtually abolished this decrease
[7]; treatment during the second stage (T+5 to T+11), compared with septic untreated baboons, FIG. 6A
  mean systemic arterial blood pressure: higher recovery of the blood pressure in the late phase
[8]; T+24, two treated groups (T0, T+5) vs E coli challenge group, P<0.001, with the exception of the lung congestion, FIG. 7
  histopathologic changes of the tissues (graded 0 to 4): significantly less severe
[8]; [16]
  cell death in adrenals and spleen: decreased cell death
  hepatocyte vacuolization and liver degeneration: lack of hepatocyte vacuolization and liver degeneration
  leukocyte infiltration in the lung, liver adrenals and spleen: less leukocyte infiltration
  thrombosis or capillary leak in the lungs: no obvious signs of thrombosis or capillary leak
  tubular necrosis and glomerular thrombosis in the kidneys: no or less tubular necrosis and glomerular thrombosis
[8]; organs collected after 24 hrs
  organ protection by histological analysis: substantial organ-protection

## CC[C@H](C)[C@H](N)C(=O)N[C@H]1CSSC[C@@H](C(=O)N[C@H](C(N)=O)[C@@H](C)O)NC(=O)[C@H](CCCN=C(N)N)NC(=O)[C@H](Cc2cnc[nH]2)NC(=O)[C@H](Cc2cnc[nH]2)NC(=O)CNC(=O)[C@H](Cc2c[nH]c3ccccc23)NC(=O)[C@H](CC(=O)O)NC(=O)[C@H](CCC(N)=O)NC(=O)[C@H](C(C)C)NC(=O)[C@H](C(C)C)NC1=O [Compstatin, Ile-Cys-Val-Val-Gln-Asp-Trp-Gly-His-His-Arg-Cys-Thr]
Complement [9]; animal 1, bolus 0.33 mg/kg T−0, 1.74 mg/kg T+60, infusion 20 μg/min/kg (8 hrs), total 58 mg
  % Complement Activation at T+120 min: 0.6%
Complement [9]; animal 2, bolus 1.0 mg/kg T−0, 2.3 mg/kg T+60, infusion 20 μg/min/kg (8 hrs), total 78 mg
  % Complement Activation at T+120 min: 0.5%
Complement [9]; animal 3, bolus 10 mg/kg T−0, infusion 200 μg/min/kg (8 hrs), total 760 mg
  % Complement Activation at T+120 min: 0.0%
Complement [9]; animal receiving the highest concentration
  inhibition of complement activation by T+120 minutes: complete inhibition
Complement [9]; animals receiving the lesser concentrations
  inhibition of complement activation by T+120 minutes: substantial inhibition
[10]; animal 1, bolus 0.33 mg/kg T−0, 1.74 mg/kg T+60, infusion 20 μg/min/kg (8 hrs)
  Survival Time: 31.5 h
[10]; animal 2, bolus 1.0 mg/kg T−0, 2.3 mg/kg T+60, infusion 20 μg/min/kg (8 hrs)
  Survival Time: 7.0 h
[10]; animal 3, bolus 10 mg/kg T−0, infusion 200 μg/min/kg (8 hrs)
  Survival Time: 11.5 h
[10]; no antibiotic treatment
  survival of treated animals: died within a few hours
Baboon complement
  inhibition of baboon complement: approximately equimolar concentrations
Human complement
  inhibition of human complement: approximately equimolar concentrations
Primate C3
  binding to primate C3: specifically binds
